Data taken from patent publication US7671054B1, “Reverse-turn mimetics and method relating thereto” (Choongwae Pharma Corporation, priority 2001, dated 2010).
Read-outs that look alike come from different tables or passages of the source.

Tests used:
HCT116 cells = assay: Growth inhibition assay (MTS); format: cell-based; conditions: Homo sapiens, Table 5, HCT116 cells, 48 hours treatment, MTS, read-out: Growth Inhibition (GI50, uM) HCT116
In short: (§1)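 Cells seeded at 10^4 per well, grown 24 h at 37° C, then exposed to compound at various concentrations for 48 hours. MTS added for 2 h; absorbance at 490 nm gave viability, with cytotoxicity calculated per concentration against pre-treatment reading.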

SW480 cells = assay: Growth inhibition assay (MTS); format: cell-based; conditions: Homo sapiens, Table 5, SW480 cells, 48 hours treatment, MTS, read-out: Growth Inhibition (GI50, uM) SW480
In short: as §1

GI50 (HCT116 cells; HCT-116, 48 h) [µM]	GI50 (SW480 cells; SW480, 48 h) [µM]	Structure (SMILES)	GI50 (HCT116 cells; HCT-116) [µM]	GI50 (SW480 cells) [µM]
6.9	8.5	C[C@H](c1cccc(N(C)C)c1)N1C[C@H]2N(C(=O)CN(C)N2C(=O)NCc2ccccc2)[C@@H](Cc2ccc(O)cc2)C1=O [Compound 38]		
0.3 ± 0.03	0.6 ± 0.2	CN1CC(=O)N2[C@@H](Cc3ccc(O)cc3)C(=O)N(Cc3cccc4cnn(Cc5cccc(N)c5)c34)C[C@@H]2N1C(=O)NCc1ccccc1 [Compound 67]		
5.4	14.1	CC(C)N(C)c1ccccc1CN1C[C@H]2N(C(=O)CN(C)N2C(=O)NCc2ccccc2)[C@@H](Cc2ccc(O)cc2)C1=O [Compound 30]		
1.9 ± 0.2	1.7 ± 0.7	C=CCN1CC(=O)N2[C@@H](Cc3ccc(O)cc3)C(=O)N(Cc3ccc4ncsc4c3)C[C@@H]2N1C(=O)NCc1ccccc1 [Compound 114]		
10.8	24.7	CC(C)N(C)c1cccc([C@@H](C)N2C[C@H]3N(C(=O)CN(C)N3C(=O)NCc3ccccc3)[C@@H](Cc3ccc(O)cc3)C2=O)c1 [Compound 42]		
4.9 ± 1.2	2.5 ± 0.4	CN1CC(=O)N2[C@@H](Cc3ccc(O)cc3)C(=O)N(Cc3cccc(OCCN4CCOCC4)c3)C[C@@H]2N1C(=O)NCc1ccccc1 [Compound 102]		
2.5 ± 0.1	2.3 ± 0.3	C#CCN1CC(=O)N2[C@@H](Cc3ccc(O)cc3)C(=O)N(Cc3ccc(Cl)c(N(C)C)c3)C[C@@H]2N1C(=O)NCc1ccccc1 [Compound 83]		
		C=CCN1CC(=O)N2[C@@H](Cc3ccc(O)cc3)C(=O)N(Cc3cccc4c3OCCO4)C[C@@H]2N1C(=O)NCc1ccccc1 [Compound 173]	0.8 ± 0.1	0.6 ± 0.1
7.1 ± 1.2	16.2 ± 2.6	CCN1CC(=O)N2[C@@H](Cc3ccc(O)cc3)C(=O)N(Cc3cccc(N4CCOCC4)c3)C[C@@H]2N1C(=O)NCc1ccccc1 [Compound 95]		
23.5 ± 2.7	35.3 ± 4.6	CN(C)CCn1ncc2cccc(CN3C[C@H]4N(C(=O)CN(C)N4C(=O)NCc4ccccc4)[C@@H](Cc4ccc(O)cc4)C3=O)c21 [Compound 62]		
4 ± 0.5	3.7 ± 0.5	CC(C)N1CC(=O)N2[C@@H](Cc3ccc(O)cc3)C(=O)N(Cc3ccc(F)cc3F)C[C@@H]2N1C(=O)NCc1ccccc1 [Compound 146]		
9.7 ± 0.9	19.3 ± 2.1	CN1CC(=O)N2[C@@H](Cc3ccc(O)cc3)C(=O)N(Cc3cccc4nnn(C)c34)C[C@@H]2N1C(=O)NCc1ccccc1 [Compound 52]		
16.9 ± 1.9	47.2 ± 12.1	CC(C)N(C)c1cccc(Cl)c1CN1C[C@H]2N(C(=O)CN(C)N2C(=O)NCc2ccccc2)[C@@H](Cc2ccc(O)cc2)C1=O [Compound 32]		
1 ± 0.03	0.9 ± 0.1	C=CCN1CC(=O)N2[C@@H](Cc3ccc(O)cc3)C(=O)N(Cc3cccc4c3OCCN4C)C[C@@H]2N1C(=O)NCc1ccccc1 [Compound 128]		
3.2 ± 0.2	1.5 ± 0.1	C#CCN1CC(=O)N2[C@@H](Cc3ccc(O)cc3)C(=O)N(Cc3cccc(N4CCOCC4)c3)C[C@@H]2N1C(=O)NCc1ccccc1 [Compound 91]		
0.9 ± 0.1	0.8 ± 0.1	C=CCN1CC(=O)N2[C@@H](Cc3ccc(O)cc3)C(=O)N(Cc3cccc4c3OCO4)C[C@@H]2N1C(=O)NCc1ccccc1 [Compound 172]		
5.9 ± 0.3	6.4 ± 0.1	C=CCN1CC(=O)N2[C@@H](Cc3ccc(O)cc3)C(=O)N(Cc3ccc(F)cc3F)C[C@@H]2N1C(=O)NCc1ccc(F)cc1 [Compound 145]		
1.7 ± 0.1	2.8 ± 0.9	C#CCN1CC(=O)N2[C@@H](Cc3ccc(O)cc3)C(=O)N(Cc3ccc(F)cc3F)C[C@@H]2N1C(=O)NCc1ccccc1 [Compound 116]		
2.1 ± 0.3	2.8 ± 0.2	C=CCN1CC(=O)N2[C@@H](Cc3ccc(O)cc3)C(=O)N(Cc3ccc(C)c(N4CCOCC4)c3)C[C@@H]2N1C(=O)NCc1ccccc1 [Compound 105]		

Structure (SMILES)	GI50 (HCT116 cells; HCT-116, 48 h) [µM]	GI50 (SW480 cells; SW480, 48 h) [µM]	GI50 (HCT116 cells; HCT-116) [µM]	GI50 (SW480 cells) [µM]
CN1CC(=O)N2[C@@H](Cc3ccc(O)cc3)C(=O)N(Cc3cccc4ccccc34)C[C@@H]2N1C(=O)NCc1ccccc1 [Compound 60]	6.3 ± 2.6	8.3 ± 1.4		
